According to PubChem BioAssay (NCI):
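In this assay, cells in 96-well plates receive the compound at five concentrations for 48 hours. Endpoints are linearly interpolated between the surrounding concentrations. The concentration for 50% growth inhibition is given as GI50. At the TGI there is no net growth.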

Experiments:
Test in all cases: NCI anticancer screen, dose series, 48 h
NCI-H460 lung = tested on: NCI-H460 lung
SNB-19 CNS = tested on: SNB-19 CNS
OVCAR-4 ovarian = tested on: OVCAR-4 ovarian
CAKI-1 renal = tested on: CAKI-1 renal
HCT-15 colon = tested on: HCT-15 colon
SF-268 CNS = tested on: SF-268 CNS
A498 renal = tested on: A498 renal
PC-3 prostate = tested on: PC-3 prostate
A549 NSCLC = tested on: A549 NSCLC
MDA-MB-231 breast = tested on: MDA-MB-231 breast
HS 578T breast = tested on: HS 578T breast
SF-539 CNS = tested on: SF-539 CNS
COLO 205 colon = tested on: COLO 205 colon
UACC-62 melanoma = tested on: UACC-62 melanoma
MALME-3M melanoma = tested on: MALME-3M melanoma
K-562 leukemia = tested on: K-562 leukemia
HCC-2998 colon = tested on: HCC-2998 colon
NCI-H522 lung = tested on: NCI-H522 lung
CCRF-CEM leukemia = tested on: CCRF-CEM leukemia
HL-60(TB) leukemia = tested on: HL-60(TB) leukemia
T-47D breast = tested on: T-47D breast
NCI-H23 lung = tested on: NCI-H23 lung
ACHN renal = tested on: ACHN renal
BT-549 breast = tested on: BT-549 breast
NCI-H226 lung = tested on: NCI-H226 lung
MCF7 breast = tested on: MCF7 breast
786-0 renal = tested on: 786-0 renal
SNB-75 CNS = tested on: SNB-75 CNS

## O=C(CNc1nc(-c2cccc([N+](=O)[O-])c2)cs1)Nc1cccc([N+](=O)[O-])c1
NCI-H460 lung
  GI50: 1040 nM
  TGI: 2760 nM
SNB-19 CNS
  GI50: 2220 nM
  TGI: 6440 nM
OVCAR-4 ovarian
  GI50: 2090 nM
  TGI: 5070 nM
CAKI-1 renal
  GI50: 715 nM
  TGI: 2600 nM
HCT-15 colon
  GI50: 582 nM
  TGI: 2810 nM
SF-268 CNS
  GI50: 1690 nM
  TGI: 3350 nM
A498 renal
  GI50: 1300 nM
  TGI: 2580 nM
PC-3 prostate
  GI50: 593 nM
  TGI: 2660 nM
A549 NSCLC
  GI50: 2630 nM
  TGI: 9090 nM
MDA-MB-231 breast
  GI50: 2110 nM
  TGI: 4560 nM
HS 578T breast
  GI50: 1600 nM
  TGI: 5280 nM
SF-539 CNS
  GI50: 1530 nM
  TGI: 3490 nM
COLO 205 colon
  GI50: 1280 nM
  TGI: 2850 nM
UACC-62 melanoma
  GI50: 662 nM
  TGI: 2030 nM
MALME-3M melanoma
  GI50: 1580 nM
  TGI: 3180 nM
K-562 leukemia
  GI50: 1030 nM
  TGI: > 100000 nM
HCC-2998 colon
  GI50: 1780 nM
  TGI: 3480 nM
NCI-H522 lung
  GI50: 1330 nM
  TGI: 2900 nM
CCRF-CEM leukemia
  GI50: 446 nM
  TGI: > 100000 nM
HL-60(TB) leukemia
  GI50: 2080 nM
  TGI: 7730 nM
T-47D breast
  GI50: 1910 nM
  TGI: 4870 nM
NCI-H23 lung
  GI50: 404 nM
  TGI: 1760 nM
ACHN renal
  GI50: 1300 nM
  TGI: 2630 nM
BT-549 breast
  GI50: 627 nM
  TGI: 2210 nM
NCI-H226 lung
  GI50: 1040 nM
  TGI: 3320 nM
MCF7 breast
  GI50: 942 nM
  TGI: 4610 nM
786-0 renal
  GI50: 1940 nM
  TGI: 4880 nM
SNB-75 CNS
  GI50: 1070 nM
